Test results from PubChem BioAssay (NCI).
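Exposure lasted 48 hours, with cells grown in 96-well plates and compounds tested at five concentrations. The concentration for 50% growth inhibition is given as GI50. Definition used: TGI = concentration required for complete inhibition of growth.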

Key:
Test in all cases: NCI-60 cell line screen, 48 h
[1] = tested on: MOLT-4 leukemia
[2] = tested on: NCI/ADR-RES ovarian
[3] = tested on: U251 CNS
[4] = tested on: SR leukemia
[5] = tested on: A498 renal
[6] = tested on: PC-3 prostate
[7] = tested on: DU-145 prostate
[8] = tested on: SNB-19 CNS
[9] = tested on: UACC-257 melanoma
[10] = tested on: SF-539 CNS
[11] = tested on: CAKI-1 renal
[12] = tested on: ACHN renal
[13] = tested on: SK-MEL-5 melanoma
[14] = tested on: KM12 colon
[15] = tested on: NCI-H522 lung
[16] = tested on: MCF7 breast
[17] = tested on: RXF 393 renal
[18] = tested on: LOX IMVI melanoma
[19] = tested on: HCT-116 colon
[20] = tested on: HOP-92 NSCLC
[21] = tested on: HT29 colon
[22] = tested on: SW-620 colon
[23] = tested on: HCT-15 colon
[24] = tested on: HL-60(TB) leukemia
[25] = tested on: SNB-75 CNS
[26] = tested on: UO-31 renal
[27] = tested on: TK-10 renal
[28] = tested on: NCI-H460 lung
[29] = tested on: K-562 leukemia
[30] = tested on: EKVX NSCLC
[31] = tested on: SK-MEL-28 melanoma
[32] = tested on: OVCAR-8 ovarian
[33] = tested on: SF-295 CNS
[34] = tested on: COLO 205 colon
[35] = tested on: NCI-H23 lung
[36] = tested on: NCI-H226 lung
[37] = tested on: A549 NSCLC
[38] = tested on: HCC-2998 colon
[39] = tested on: SN12C renal
[40] = tested on: SF-268 CNS
[41] = tested on: HS 578T breast
[42] = tested on: OVCAR-4 ovarian
[43] = tested on: OVCAR-3 ovarian
[44] = tested on: RPMI-8226 leukemia
[45] = tested on: 786-0 renal
[46] = tested on: CCRF-CEM leukemia
[47] = tested on: MALME-3M melanoma
[48] = tested on: BT-549 breast
[49] = tested on: MDA-MB-231 breast
[50] = tested on: IGROV1 ovarian
[51] = tested on: OVCAR-5 ovarian
[52] = tested on: MDA-MB-435
[53] = tested on: HOP-62 NSCLC
[54] = tested on: SK-OV-3 ovarian
[55] = tested on: SK-MEL-2 melanoma
[56] = tested on: M14 melanoma
[57] = tested on: UACC-62 melanoma

S=c1ncc2n[nH]nc2[nH]1
TGI [1]: > 100 µM
TGI [2]: > 100 µM
TGI [3]: > 100 µM
TGI [4]: > 100 µM
TGI [5]: > 100 µM
TGI [6]: > 100 µM
TGI [7]: > 100 µM
TGI [8]: > 100 µM
TGI [9]: > 100 µM
TGI [10]: > 100 µM
TGI [11]: > 100 µM
TGI [12]: > 100 µM
TGI [13]: > 100 µM
TGI [14]: > 100 µM
TGI [15]: > 100 µM
TGI [16]: > 100 µM
TGI [17]: > 100 µM
TGI [18]: > 100 µM
TGI [19]: > 100 µM
TGI [20]: > 100 µM
TGI [21]: > 100 µM
TGI [22]: > 100 µM
TGI [23]: > 100 µM
TGI [24]: > 100 µM
TGI [25]: > 100 µM
TGI [26]: > 100 µM
TGI [27]: > 100 µM
TGI [28]: > 100 µM
TGI [29]: > 100 µM
TGI [30]: > 100 µM
TGI [31]: > 100 µM
TGI [32]: > 100 µM
TGI [33]: > 100 µM
TGI [34]: > 100 µM
TGI [35]: > 100 µM
TGI [36]: > 100 µM
TGI [37]: > 100 µM
TGI [38]: > 100 µM
TGI [39]: > 100 µM
TGI [40]: > 100 µM
TGI [41]: > 100 µM
TGI [42]: > 100 µM
TGI [43]: > 100 µM
TGI [44]: > 100 µM
TGI [45]: > 100 µM
TGI [46]: > 100 µM
TGI [47]: > 100 µM
TGI [48]: > 100 µM
TGI [49]: > 100 µM
TGI [50]: > 100 µM
TGI [51]: > 100 µM
TGI [52]: > 100 µM
TGI [53]: > 100 µM

COc1ccc([As]=[As]c2ccc(OC)c(NCS(=O)(=O)O)c2)cc1NCS(=O)(=O)O (stereo not given)
GI50 [1]: 1.33 µM
TGI [1]: 6.18 µM
GI50 [2]: 3.49 µM
TGI [2]: 27.1 µM
GI50 [3]: 0.768 µM
TGI [3]: 2.25 µM
GI50 [4]: 0.691 µM
TGI [4]: 4.88 µM
GI50 [5]: 1.65 µM
TGI [5]: 3.26 µM
GI50 [6]: 3.14 µM
TGI [6]: 11.7 µM
GI50 [7]: 3.56 µM
TGI [7]: 13.8 µM
GI50 [8]: 1.82 µM
TGI [8]: 3.68 µM
GI50 [9]: 1.62 µM
TGI [9]: 3.37 µM
GI50 [10]: 1.39 µM
TGI [10]: 3.43 µM
GI50 [54]: 10 µM
TGI [54]: 21.8 µM
GI50 [12]: 1.62 µM
TGI [12]: 3 µM
GI50 [13]: 1.86 µM
TGI [13]: 4.27 µM
GI50 [14]: 2.98 µM
TGI [14]: 10.5 µM
GI50 [15]: 0.324 µM
TGI [15]: 1.53 µM
GI50 [16]: 1.09 µM
TGI [16]: 3.44 µM
GI50 [17]: 1.41 µM
TGI [17]: 3.09 µM
GI50 [55]: 1.91 µM
TGI [55]: 4.54 µM
GI50 [18]: 1.34 µM
TGI [18]: 4.49 µM
GI50 [19]: 1.7 µM
TGI [19]: 3.2 µM
GI50 [20]: 1.45 µM
TGI [20]: 3.24 µM
GI50 [56]: 2.15 µM
TGI [56]: 5.69 µM
GI50 [21]: 2.25 µM
TGI [21]: 5.37 µM
GI50 [22]: 1.17 µM
TGI [22]: 3.04 µM
GI50 [23]: 1.47 µM
TGI [23]: 3.31 µM
GI50 [24]: 1.51 µM
TGI [24]: 11.7 µM
GI50 [25]: 1.27 µM
TGI [25]: 2.8 µM
GI50 [26]: 1.46 µM
TGI [26]: 3.16 µM
GI50 [27]: 1.86 µM
TGI [27]: 3.55 µM
GI50 [28]: 3.49 µM
TGI [28]: 12.2 µM
GI50 [29]: 0.615 µM
TGI [29]: 11.1 µM
GI50 [30]: 1.36 µM
TGI [30]: 7.26 µM
GI50 [31]: 1.45 µM
TGI [31]: 3 µM
GI50 [32]: 2.48 µM
TGI [32]: 6.84 µM
GI50 [33]: 3.01 µM
TGI [33]: 9.48 µM
GI50 [34]: 1.52 µM
TGI [34]: 3.46 µM
GI50 [57]: 1.86 µM
TGI [57]: 4.6 µM
GI50 [35]: 2.57 µM
TGI [35]: 8.62 µM
GI50 [36]: 4.07 µM
TGI [36]: 17.3 µM
GI50 [37]: 3.04 µM
TGI [37]: 9.96 µM
GI50 [38]: 2.67 µM
TGI [38]: 8.8 µM
GI50 [39]: 1.54 µM
TGI [39]: 3.34 µM
GI50 [40]: 1.62 µM
TGI [40]: 4.12 µM
GI50 [41]: 3.21 µM
TGI [41]: > 100 µM
GI50 [42]: 1.27 µM
TGI [42]: 2.6 µM
GI50 [43]: 1.57 µM
TGI [43]: 3.06 µM
GI50 [44]: 0.926 µM
TGI [44]: 5.93 µM
GI50 [45]: 1.63 µM
TGI [45]: 3.51 µM
GI50 [46]: 0.415 µM
TGI [46]: 3.14 µM
GI50 [47]: 1.41 µM
TGI [47]: 3.34 µM
GI50 [48]: 1.11 µM
TGI [48]: 2.45 µM
GI50 [49]: 1.56 µM
TGI [49]: 3.4 µM
GI50 [50]: 1.19 µM
TGI [50]: 3.4 µM
GI50 [51]: 2.02 µM
TGI [51]: 4.22 µM
GI50 [52]: 2.03 µM
TGI [52]: 5.26 µM
GI50 [53]: 2.4 µM
TGI [53]: 5.9 µM
